Source: BigSolDB 2.1

Cc1ccc(S(=O)(=O)[O-])cc1Cl.[Na+]
Settings | solubility (mole fraction)
in DMF, 280.6 K | 0.0203
in DMF, 286.3 K | 0.0206
in DMF, 291.3 K | 0.0208
in DMF, 297.6 K | 0.0212
in DMF, 304.8 K | 0.0216
in DMF, 310.7 K | 0.0223
in DMF, 314.8 K | 0.0228
in DMF, 319 K | 0.0235
in DMF, 322.1 K | 0.024
in DMF, 327.6 K | 0.0252
in DMF, 333.3 K | 0.0268
in DMSO, 294 K | 0.086
in DMSO, 299.6 K | 0.0868
in DMSO, 304.9 K | 0.0878
in DMSO, 310.6 K | 0.0887
in DMSO, 314.5 K | 0.0894
in DMSO, 319.2 K | 0.0902
in DMSO, 323.5 K | 0.0912
in DMSO, 330.2 K | 0.0929
in DMSO, 335.2 K | 0.0947
in formic acid, 283 K | 0.037
in formic acid, 288.9 K | 0.0383
in formic acid, 295.9 K | 0.0398
in formic acid, 301.4 K | 0.0415
in formic acid, 307.3 K | 0.0431
in formic acid, 313 K | 0.0446
in formic acid, 319.5 K | 0.0458
in formic acid, 324.9 K | 0.0475
in formic acid, 331.1 K | 0.0491
in formic acid, 335.5 K | 0.0503
in methanol, 287.1 K | 0.00409
in methanol, 293 K | 0.00447
in methanol, 297.1 K | 0.0047
in methanol, 302.6 K | 0.00498
in methanol, 306.1 K | 0.00524
in methanol, 311.8 K | 0.0055
in methanol, 316.7 K | 0.00579
in methanol, 321.5 K | 0.00607
in methanol, 327 K | 0.00637
in methanol, 333.1 K | 0.0067
in water, 281 K | 0.00416
in water, 284 K | 0.00437
in water, 288.1 K | 0.00478
in water, 292.2 K | 0.0053
in water, 296.5 K | 0.00592
in water, 301.2 K | 0.00661
in water, 305.6 K | 0.00733
in water, 310.7 K | 0.00835
in water, 314.6 K | 0.0092
in water, 318.7 K | 0.0101
in water, 322.4 K | 0.0111
in water, 326.2 K | 0.0122
in water, 331.1 K | 0.0139
in water, 335.1 K | 0.0154
